Experimental data published in patent publication US8906925B2, “Pyrido[4,3-B]indoles containing rigid moieties” (Medivation Technologies, Inc., priority 2008, dated 2014).
Several values for one entry are separate records, joined by “and”; a condition that tells them apart may be missing. Identical values can stand only once. Like-named read-outs stand apart in the source and are kept apart here.

Assays:
[1] = biological target: T1, human recombinant serotonin (5-Hydroxytryptamine) 5-HT2A receptor (Homo sapiens, UniProt P28223); assay: Serotonin 5-HT2A radioligand binding ([3H]Ketanserin)
T1 construct: expressed in transfected cells; host or cells: Chinese hamster ovary (CHO-K1) cells
Procedure: Compounds of the invention were incubated with 0.5 nM [^3H]Ketanserin for 60 min. at 25° C. Non-specific binding was estimated in the presence of 1 μM Mianserin. Receptor proteins were filtered and washed, the filters were then counted to determine [^3H]Ketanserin specifically bound.

histamine receptor H1 = histamine receptor H1 (Homo sapiens, UniProt P35367); assay: Histamine H1 radioligand binding ([3H]Pyrilamine); settings: for inhibition at 1 µM: read-out: Histamine Binding (1 μM) H1, percent inhibition of specific binding, 1 μM
Outline: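 Values are percent inhibition of specific [3H]pyrilamine (1.2 nM) binding with compounds at ≤1 μM (1% DMSO vehicle); 180 min incubation at 25 °C, pH 7.4 Tris buffer, on CHO-expressed human H1 receptor; 1 μM pyrilamine defined nonspecific binding, bound ligand counted after filtration.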

[2] = biological target: T2, human recombinant serotonin (5-Hydroxytryptamine) 5-HT2C receptor (Homo sapiens, UniProt P28335); assay: Serotonin 5-HT2C radioligand binding ([3H]Mesulergine); settings: read-out: Inhibition of ligand binding, Serotonin 5-HT2C (percent inhibition of specific binding); for inhibition at 1 µM: compound at 1 μM; for inhibition at 0.1 µM: compound at 0.1 μM
T2 construct: expressed in transfected cells; host or cells: Chinese hamster ovary (CHO-K1) cells
T2 sequence (P28335 33-458): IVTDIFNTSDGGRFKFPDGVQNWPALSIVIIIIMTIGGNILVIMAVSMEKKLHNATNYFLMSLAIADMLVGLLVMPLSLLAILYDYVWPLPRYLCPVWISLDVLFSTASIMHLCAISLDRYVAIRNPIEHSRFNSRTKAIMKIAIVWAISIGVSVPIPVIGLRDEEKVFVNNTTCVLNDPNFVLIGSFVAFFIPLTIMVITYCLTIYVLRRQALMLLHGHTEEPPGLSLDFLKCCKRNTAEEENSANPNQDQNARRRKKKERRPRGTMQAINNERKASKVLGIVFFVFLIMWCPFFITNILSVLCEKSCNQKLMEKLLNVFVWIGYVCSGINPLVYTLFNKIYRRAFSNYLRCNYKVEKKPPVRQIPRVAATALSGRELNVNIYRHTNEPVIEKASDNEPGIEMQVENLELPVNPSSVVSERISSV
Outline: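 Compounds tested at 1 μM or lower (1% DMSO vehicle) for displacement of 1 nM [3H]Mesulergine over 60 min at 25° C. Specific binding determined by filtration counting, with 1 μM Mianserin defining non-specific binding; values are percent inhibition.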

[3] = biological target: T3, human recombinant histamine H2 receptor (Homo sapiens, UniProt P25021); assay: Histamine H2 radioligand binding ([125I]Aminopotentidine); settings: read-out: Histamine Binding (1 μM) H2, percent inhibition of specific binding, 1 μM
T3 construct: expressed in transfected cells; host or cells: Chinese hamster ovary (CHO) K1 cells
Outline: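 Receptor source: human recombinant H2 in CHO-K1 cells, assayed in 50 mM phosphate pH 7.4. Competition against 0.1 nM [125I]aminopotentidine, 120 min, 25 °C; 3 μM tiotidine sets nonspecific binding, filter-bound counts give specific binding.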

[4] = biological target: T4, human recombinant adrenergic α2B receptor (Homo sapiens, UniProt P18089); assay: Adrenergic α2B radioligand binding ([3H]Rauwolscine); settings: compound at 1 μM
T4 construct: expressed in transfected cells; host or cells: Chinese hamster ovary (CHO-K1) cells
T4 sequence (P18089 1-450): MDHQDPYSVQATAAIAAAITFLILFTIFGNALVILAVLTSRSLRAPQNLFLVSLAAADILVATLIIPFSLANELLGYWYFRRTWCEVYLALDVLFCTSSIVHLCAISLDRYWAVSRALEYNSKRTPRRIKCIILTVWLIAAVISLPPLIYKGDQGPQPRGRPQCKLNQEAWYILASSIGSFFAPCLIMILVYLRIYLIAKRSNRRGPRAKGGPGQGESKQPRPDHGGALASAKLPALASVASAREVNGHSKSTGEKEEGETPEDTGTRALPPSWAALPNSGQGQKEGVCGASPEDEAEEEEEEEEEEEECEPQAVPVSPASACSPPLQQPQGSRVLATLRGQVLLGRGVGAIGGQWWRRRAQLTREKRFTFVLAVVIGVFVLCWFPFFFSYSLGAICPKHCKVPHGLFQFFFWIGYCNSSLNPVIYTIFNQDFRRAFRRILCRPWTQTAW
Procedure: To evaluate in radioligand binding assays the activity of compounds of the invention, human recombinant adrenergic α2B receptor expressed in Chinese hamster ovary (CHO-K1) cells (Uhlen S et al. Eur J Pharmacol. 343(1):93, 1998) in a modified Tris-HCl buffer (50 mM Tris-HCl, pH 7.4, 12.5 mM MgCl2, 1 mM EDTA, 0.2% BSA) was used. Compounds of the invention were incubated with 2.5 nM [^3H]Rauwolscine for 60 min. at 25° C. Non-specific binding was estimated in the presence of 10 μM Prozosin. Receptor proteins were filtered and washed, the filters were then counted to determine [^3H]Rauwolscine specifically bound. Compounds were screened at 1 μM or lower, using 1% DMSO as vehicle. Biochemical assay results are presented as the percent inhibition of specific binding in Table 9.

[5] = read-out: Inhibition of ligand binding, Serotonin 5-HT2A (percent inhibition of specific binding), compound at 1 μM
[6] = percent inhibition of specific binding, read-out: Inhibition of ligand binding, Adrenergic α2B
[7] = […] [3H]Rauwolscine, read-out: Inhibition of ligand binding, Adrenergic α2B (percent inhibition of specific binding)

Chain of histamine receptor H1 (P35367 whole entry): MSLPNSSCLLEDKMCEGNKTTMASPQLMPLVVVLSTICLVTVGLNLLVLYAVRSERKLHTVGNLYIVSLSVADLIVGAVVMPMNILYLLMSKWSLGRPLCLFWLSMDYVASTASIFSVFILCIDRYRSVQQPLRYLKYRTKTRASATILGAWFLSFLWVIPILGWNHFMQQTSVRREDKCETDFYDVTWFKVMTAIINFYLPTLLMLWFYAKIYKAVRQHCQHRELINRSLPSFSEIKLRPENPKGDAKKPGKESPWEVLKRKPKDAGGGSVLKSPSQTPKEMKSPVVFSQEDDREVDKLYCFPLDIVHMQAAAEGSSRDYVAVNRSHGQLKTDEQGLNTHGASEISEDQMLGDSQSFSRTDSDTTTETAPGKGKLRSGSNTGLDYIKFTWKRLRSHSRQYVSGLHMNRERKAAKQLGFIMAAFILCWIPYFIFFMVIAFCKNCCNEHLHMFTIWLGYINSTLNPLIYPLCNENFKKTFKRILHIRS
T3 sequence (P25021 whole entry): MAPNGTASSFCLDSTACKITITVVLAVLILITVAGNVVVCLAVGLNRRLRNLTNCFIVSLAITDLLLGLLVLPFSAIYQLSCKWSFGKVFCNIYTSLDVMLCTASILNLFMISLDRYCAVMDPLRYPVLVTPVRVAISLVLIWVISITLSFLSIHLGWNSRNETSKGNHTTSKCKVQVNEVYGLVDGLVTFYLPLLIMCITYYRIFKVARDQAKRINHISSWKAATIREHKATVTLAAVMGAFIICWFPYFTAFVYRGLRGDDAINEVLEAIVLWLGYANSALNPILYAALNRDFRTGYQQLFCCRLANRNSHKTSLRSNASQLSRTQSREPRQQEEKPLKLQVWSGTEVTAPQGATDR
T1 sequence (P28223 whole entry): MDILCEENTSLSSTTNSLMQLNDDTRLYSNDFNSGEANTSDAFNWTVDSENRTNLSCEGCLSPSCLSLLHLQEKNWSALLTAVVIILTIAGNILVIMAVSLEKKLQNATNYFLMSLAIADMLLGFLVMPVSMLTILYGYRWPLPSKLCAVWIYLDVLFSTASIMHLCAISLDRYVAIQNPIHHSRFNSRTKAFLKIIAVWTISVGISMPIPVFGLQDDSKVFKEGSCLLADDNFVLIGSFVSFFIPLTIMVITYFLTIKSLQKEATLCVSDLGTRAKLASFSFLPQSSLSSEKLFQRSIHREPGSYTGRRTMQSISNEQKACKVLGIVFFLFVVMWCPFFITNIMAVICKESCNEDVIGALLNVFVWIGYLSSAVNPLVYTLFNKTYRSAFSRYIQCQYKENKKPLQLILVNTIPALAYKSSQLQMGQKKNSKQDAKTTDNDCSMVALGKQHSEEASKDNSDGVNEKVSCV

Row | inhibition at 0.1 µM ([1]; compound at 0.1 μM, read-out: Inhibition of ligand binding, Serotonin 5-HT2A (percent inhibition of specific binding)) | inhibition at 1 µM ([1]; compound at 1 μM, read-out: Inhibition of ligand binding, Serotonin 5-HT2A (percent inhibition of specific binding)) | SMILES | inhibition at 1 µM [1, 5] | inhibition at 1 µM (histamine receptor H1) | inhibition at 1 µM [2] | inhibition at 1 µM [3] | inhibition at 1 µM [4, 6] | inhibition at 1 µM [4, 7] | Histamine Binding (1 μM) H1, percent inhibition of specific binding (histamine receptor H1) | inhibition at 0.1 µM [2] | inhibition at 0.1 µM ([1]; read-out: Inhibition of ligand binding, Serotonin 5-HT2A (percent inhibition of specific binding), compound at 0.1 μM)
1 | – | – | Cc1ccc2c(c1)c1c(n2CC(C)(O)c2ccc(C)nc2)CCN(C)C1 (stereo not drawn) [Compound 52, 1-(1,2,3,4-tetrahydro-2,8-dimethylpyrido[4,3-b]indol-5-yl)-2-(6-methylpyridin-3-yl)propan-2-ol] | 83% | 46% | 87% | 51% | 104% | – | – | – | –
2 | – | – | COC(=O)c1ccc2c(c1)c1c(n2C#Cc2ccc(F)cc2)CCN(C)C1 [Compound No. 479, methyl 5-((4-fluorophenyl)ethynyl)-2-methyl-2,3,4,5-tetrahydro-1H-pyrido[4,3-b]indole-8-carboxylate] | 78% | 11% | 69% | 51% | – | 37% | – | – | –
3 | – | – | Cc1ccc2c(c1)c1c(n2C#Cc2ccc(C)nc2)CCN(C)C1 [Compound No. 476, 2,8-dimethyl-5-((6-methylpyridin-3-yl)ethynyl)-2,3,4,5-tetrahydro-1H-pyrido[4,3-b]indole] | 100% | 27% | 95% | 88% | – | 87% | – | – | –
4 | – | – | CCOC(=O)/C=C(/Cn1c2c(c3cc(C)ccc31)CN(C)CC2)c1ccc(F)cc1 [Compound No. 350, (E)-ethyl 4-(2,8-dimethyl-3,4-dihydro-1H-pyrido[4,3-b]indol-5(2H)-yl)-3-(4-fluorophenyl)but-2-enoate] | 100% | 27% | 87% | 93% | – | 107% | 37% | – | –
5 | – | – | Cc1ccc(C(C)(O)Cn2c3c(c4cc(Cl)ccc42)CN(C)CC3)cn1 (stereo not drawn) [Compound 47, 1-(8-chloro-1,2,3,4-tetrahydro-2-methylpyrido[4,3-b]indol-5-yl)-2-(6-methylpyridin-3-yl)propan-2-ol] | 84% | 33% | 81% | 48% | 106% | – | – | – | –
6 | – | – | Cc1ccc2c(c1)c1c(n2/C=C/c2ccccc2)CCN(C)C1 [Compound 202, (E)-2,8-dimethyl-5-styryl-2,3,4,5-tetrahydro-1H-pyrido[4,3-b]indole] | 101% | 100% | 101% | 97% | 98% | – | – | – | –
7 | 98% | 99% | C/C(=C\n1c2c(c3cc(Cl)ccc31)CN(C)CC2)c1ccc(F)cc1 [Compound 83, (E)-8-chloro-5-(2-(4-fluorophenyl)prop-1-enyl)-2,3,4,5-tetrahydro-2-methyl-1H-pyrido[4,3-b]indole] | – | – | 98% | 99% | 121% | – | 60% and 79% and 84% | 100% | –
8 | – | – | C/C(=C\n1c2c(c3ccccc31)CN(C)CC2)c1ccc(F)cc1 [Compound 205, (E)-5-(2-(4-fluorophenyl)prop-1-enyl)-2-methyl-2,3,4,5-tetrahydro-1H-pyrido[4,3-b]indole] | 97% | 31% | 100% | 95% | 101% | – | 39% | 96% | 104%
9 | – | – | CN1CCc2c(c3cc(Cl)ccc3n2CC(C)(O)c2ccncc2)C1 (stereo not drawn) [Compound 63, 1-(8-chloro-1,2,3,4-tetrahydro-2-methylpyrido[4,3-b]indol-5-yl)-2-(pyridin-4-yl)propan-2-ol] | 95% | 46% | 95% | 53% | 101% | – | – | – | –
10 | – | – | CN1CCc2c(c3cc(Cl)ccc3n2CC(O)c2cccnc2)C1 (stereo not drawn) [Compound 56, 2-(8-chloro-1,2,3,4-tetrahydro-2-methylpyrido[4,3-b]indol-5-yl)-1-(pyridin-3-yl)ethanol] | 68% | 90% | 38% | 26% | 112% | – | – | – | –
11 | – | – | Cc1ccc2c(c1)c1c(n2CC(C)(O)c2ccncc2)CCN(C)C1 (stereo not drawn) [Compound 62, 1-(1,2,3,4-tetrahydro-2,8-dimethylpyrido[4,3-b]indol-5-yl)-2-(pyridin-4-yl)propan-2-ol] | 88% | 38% | 89% | 43% | 103% | – | – | – | –
12 | – | – | Cc1ccc2c(c1)c1c(n2/C=C(\CC(=O)O)c2ccc(F)cc2)CCN(C)C1 [Compound 209, (E)-4-(2,8-dimethyl-3,4-dihydro-1H-pyrido[4,3-b]indol-5(2H)-yl)-3-(4-fluorophenyl)but-3-enoic acid] | 93% | 9% | 95% | 20% | 59% | – | – | – | –
13 | – | – | COc1ccc(C(C)(O)Cn2c3c(c4cc(Cl)ccc42)CN(C)CC3)cc1F (stereo not drawn) [Compound 59, 1-(8-chloro-1,2,3,4-tetrahydro-2-methylpyrido[4,3-b]indol-5-yl)-2-(3-fluoro-4-methoxyphenyl)propan-2-ol] | 96% | 63% | 99% | 58% | 95% | – | – | – | –
14 | – | – | Cc1ccc2c(c1)c1c(n2CC(O)c2ccncc2)CCN(C)C1 (stereo not drawn) [Compound 180, 2-(2,8-dimethyl-3,4-dihydro-1H-pyrido[4,3-b]indol-5(2H)-yl)-1-(pyridin-4-yl)ethanol] | 86% | 84% | 74% | 24% | 105% | – | – | – | –
15 | – | – | Cc1ccc(/C=C/Cn2c3c(c4cc(Cl)ccc42)CN(C)CC3)cn1 [Compound 125, 8-chloro-2,3,4,5-tetrahydro-2-methyl-5-((E)-3-(6-methylpyridin-3-yl)allyl)-1H-pyrido[4,3-b]indole] | 97% | 96% | 77% | 48% | 110% | – | – | – | –
